Peptide text beside a SMILES is read from it.
Details: mouse, in vivo
Description: The aim of the study was to compare the exposure of L-Leucine-13C6, 15N, L-Isoleucine-13C6, 15N, L-Valine-13C5, 15N in plasma after their administration alone or in association with L-Alanine or L-Alanyl-L-alanine in the mouse. Plasma samples were analyzed by dean-up and derivatization using the EZfaast™ amino acid analysis kit (Phenomenex) and analyzed by UPLC-MSMS.
CD1 mouse with body weights of 25-30 gr at the time of the treatment were used in this study, approximate age was about 4 weeks according to growth curve. The animals were originally supplied by Harlan, Italy. Once receipt from the supplier, the animals were subjected to health examinations and acceptance. The animals were housed, in a group of five, in cages suitable for the species. The animals were acclimatized to local housing conditions for approximately 5 days. The animals were routinely kept in the following environment except for short periods of time where experimental procedures dictated otherwise. The animals were housed in a single, exclusive room, air conditioned to provide a minimum of 15 air changes/hour. […] Clinical signs were monitored at regular intervals throughout the study in order to assess any reaction to treatment. […]

C[C@H](N)C(=O)N[C@@H](C)C(=O)O [L-Alanyl-L-alanine] (H-Ala-Ala-OH)
Plasma concentrations of the labelled amino acids (AUC0-24 h), rank among groups: highest concentrations
